Tests used:
[1] = test system: PGD2 production in the nasal cavities of guinea pigs with antigen-induced rhinitis; test: PGD2 production inhibiting action in the nasal cavities of guinea pigs with antigen-induced rhinitis; format: in vivo; details: 30 mg/kg orally 1 hour before induction of rhinitis reaction; washing 30 minutes after induction; * = significance level below 0.05 vs control group
Description: A physiological saline solution containing 1 mg/mL of ovalbumin was subcutaneously injected into the back of 5-week-old male Std: Hartley guinea pigs in an amount of 1 mL/body for active sensitization (initial sensitization). One week and two weeks after initial sensitization, 20 μL of a physiological saline solution containing 10 mg/mL of ovalbumin was instilled into each nasal cavity using a micropipette (sensitization by nasal administration). Three weeks after initial sensitization, 20 μL of a physiological saline solution containing 10 mg/mL of ovalbumin was instilled into each nasal cavity using a micropipette to induce a rhinitis reaction.
30 minutes after the induction of a rhinitis reaction, the nasal cavities were washed under pentobarbital sodium anesthesia. A nasal cavity washing liquid (phosphate buffered saline containing 3 mM of EDTA and 10 μM of indomethacin) was flushed using a Peristaltic Pump (Gilson, Inc.) in the direction from the trachea to the upper respiratory tract at a flow rate of 1 mL/min, and the liquid flowing out from the nasal cavities was collected for 1 minute. The collected liquid was centrifuged to separate the supernatant as the nasal cavity washing fluid. The concentration of PGD2 in the nasal cavity washing fluid was determined using an EIA kit (Prostaglandin D2-MOX EIA kit, Cayman Chemical).
The test compound (30 mg/kg) was orally administered 1 hour before induction of a rhinitis reaction. A formula to calculate the rate of decrease in PGD2 in the nasal cavity washing fluid is shown below. Rate (%) of decrease in PGD2 in the nasal cavity washing fluid={(PGD2 concentration in the control group−PGD2 concentration in the compound-administered group)÷(PGD2 concentration in the control group−PGD2 concentration in the normal group)}×100
8 or more cases were obtained from each group to determine whether expression of the PGD2 production inhibiting action occurred, and the PGD2 concentration in the nasal cavity washing fluid was compared between the control group and each compound-administered group. […] When the significance level was below 0.05, the action was considered to be present and indicated by a symbol (*) in the table. Reference Example 18, known as an H-PGDS inhibitor, was used as a positive control substance.

human H-PGDS = human H-PGDS (Homo sapiens (Human), UniProt O60760); test: Hematopoietic prostaglandin D synthase (H-PGDS) inhibiting action; format: biochemical; details: compound at 0.1 μM, relative to the control group; human H-PGDS, [14C] prostaglandin H2 10 μM; read-out: Inhibition Rate (%) 0.1 μM
human H-PGDS, sequence (O60760 whole entry): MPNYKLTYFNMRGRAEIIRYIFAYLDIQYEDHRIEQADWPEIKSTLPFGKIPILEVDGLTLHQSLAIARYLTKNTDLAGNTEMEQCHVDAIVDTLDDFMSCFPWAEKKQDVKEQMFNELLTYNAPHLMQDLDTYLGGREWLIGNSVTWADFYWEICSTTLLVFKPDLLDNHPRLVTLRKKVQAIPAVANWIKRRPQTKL
Description: The test was carried out according to the method of Urade, Y. et al. (J. Biol. Chem., 262, 3820-3825, (1987)). More specifically, the reaction mixture (49 μL) containing 100 mM Tris-HCl (pH 8.0), 1 mM reduced glutathione, 0.1 mg/mL γ-globulin, and human H-PGDS (q.s.), and a compound (final concentration: 0.01-100 μM) was preincubated at 25° C. for 5 minutes. A DMSO solution (final concentration: 1%) was added to the solvent control group. Subsequently, 1 μL of [^14C] prostaglandin H2 (final concentration: 10 μM) was added to start the reaction. One minute after the start of the reaction, 250 μL of a reaction stop solution (diethylether/methanol/1 M citric acid (30/4/1) at a temperature of −20° C. was added to stop the reaction. After the reaction was stopped, 50 μL of the upper-layer portion (organic solvent layer) was applied to a TLC plate and developed at −20° C. for 45 minutes (developing solvent: diethylether/methanol/acetic acid (90/2/1)). After drying the TLC plate, the TLC plate was exposed to an imaging plate for 1 to 24 hours, and the radioactivity corresponding to prostaglandin D2 (PGD2) was analyzed using an image analyzer (produced by Fujifilm Corporation). […]

Structure (SMILES) | Rate (%) of decrease in PGD2 in the nasal cavity washing fluid [1] | inhibition at 0.1 µM (human H-PGDS)
O=C(Nc1nc2ccc(Br)cc2s1)N1CCN(C(=O)c2cccc(F)c2)CC1 [Reference Example 12, 4-(3-fluorobenzoyl)-piperazine-1-carboxylic acid-(6-bromobenzothiazol-2-yl)-amide, reference compound] | 7.9% | 45.1%
Cc1ccc2nc(NC(=O)N3CCN(C(=O)c4cccc(F)c4)CC3)sc2c1 [Reference Example 14, 4-(3-fluorobenzoyl)-piperazine-1-carboxylic acid-(6-methylbenzothiazol-2-yl)-amide, reference compound] | 26.6% | 27.9%
